Test results reported in patent publication US20050132448A1, “Assay for beta cell toxic macrolides” (priority 2001, published 2005).
Entries after “also recorded” stand apart in the source; their conditions may differ.

Assays:
Balb/c mice [1] = assay: Intra-islet insulin by indirect immunofluorescence on pancreas sections; type: in vivo
Method: FIG. 2 is a graphical representation of vacuolar ATPase inhibition causing increased islet insulin content of secretory granules in islet β cells. Infra-islet insulin was detected in paraffin embedded sections by indirect immunofluorescence using an anti-pig insulin antibody. Digitised images collected on an epifluorescent microscope were analysed for staining density using MCID image analysis software to provide a semi-quantitative measure of the amount of bound anti-insulin antibody. At least 9 islets were measured for each of 5 control mice and 6 bafilomycin A1-treated mice, and individual values for each islet from all mice in each group were combined for analysis. A measurement was made in each islet, and the background measured in exocrine tissue adjacent to the same islet was subtracted. Units are arbitrary fluorescence units and the data are expressed as the mean and standard deviation.
The pancreas, liver, kidney and brain were dissected from anaesthetised mice and immediately fixed in formalin. […] Endogenous peroxidase activity was inactivated using 0.5% hydrogen peroxide in methanol prior to the antibody incubations and bound HRP conjugated antibody was detected using Sigma FAST-DAB peroxidase tablets. FITC was detected using an Olympus epifluorescence microsocope and images were captured and analysed using a digital camera and MCID software. […]

Balb/c mice [2] = assay: Long-term effects on random blood glucose, weight and islet morphology/size; type: in vivo
Method: FIG. 6 is a graphical representation of islet size following administration of bafilomycin A1. Reduced islet size is a long-term consequence of vacuolar ATPase inhibition. Pancreas morphology was examined at either 1, 7, 26 or 90 days after administration of bafilomycin A1. Islet size was determined by measuring the areas of the pancreas sections positive for staining with insulin antibody using MCID software. • Controls—223 islets from 12 mice • 1 day—81 islets from 3 mice • 7 days—125 islets from 3 mice • 26 days—90 islets from 4 mice • 90 days—81 islets from 4 mice • The black square represents the median, the dotted boxes 25-75th percentiles, bars the 10-90th percentiles, and outliers by dots.
The pancreas, liver, kidney and brain were dissected from anaesthetised mice and immediately fixed in formalin. Paraffin embedded sections (4 μm) were either stained with haemotoxylin and eosin or prepared for immunohistochemistry or indirect immunofluorescence. Immunostaining was performed on de-paraffinised sections as follows. The section was blocked in PBS containing 1% skim milk powder for 1 hour. Anti-insulin antiserum raised in Guinea pig (Dako) was diluted 1 in 50 in PBS 1% skim milk powder and left at room temperature for 60 minutes. Sections were washed in PBS and incubated with 1:200 dilution of horse radish peroxidase conjugated anti-guinea pig antiserum (Sigma) or a 1:400 dilution of FITC-conjugated anti-guinea pig serum (Sigma) for 1 hour. Endogenous peroxidase activity was inactivated using 0.5% hydrogen peroxide in methanol prior to the antibody incubations and bound HRP conjugated antibody was detected using Sigma FAST-DAB peroxidase tablets. FITC was detected using an Olympus epifluorescence microsocope and images were captured and analysed using a digital camera and MCID software.
The long-term effects of bafilomycin A1 on blood glucose concentrations and islet morphology were investigated in 4 mice treated twice with a weekly interval. Random blood glucose levels (RBG) and weight were determined, weekly over 90 days and results were compared to a control group of 3 mice treated with carrier solution.

C57B1/6J mice = assay: Size and number of pancreatic islets after vATPase inhibitors; type: in vivo
Method: The effect of vATPase inhibitors on the size and number of pancreatic islets was analysed in C57B1/6J using either bafilomycin A1 (BA1) or concanamycin A (CMA). The effect of Streptozotocin, an islet beta-cell specific toxin produced by Streptomyces achromogenes was also examined, to enable comparison with the effect of vATPase inhibitors.
Groups of 4 female C57B1/6J mice were injected with 5 doses on 5 consecutive days of 12 ng/g body weight BA1, CMA or the well characterised islet β-cell toxin streptozotocin. Pancreases were removed on day 84 and 3 formalin-fixed sections per mouse were immunostained for insulin. The area of insulin-positive islets was measured on digital images using MCID software.

NOD/lt mice = assay: Acceleration of diabetes onset in NOD mice; type: in vivo; settings: 12 ng per gram i.p. on 5 consecutive days, 11-week-old female mice
Method: The NOD mouse develops spontaneous diabetes due to an autoimmune mediated destruction of the pancreatic islet β-cells. The characteristics of diabetes development in the NOD mouse parallel those in humans, making the NOD mouse a useful model of human Type 1 diabetes. Lymphocytic infiltrates in the pancreatic islets, termed insulitis, first develops in NOD mice soon after weaning at 4 weeks of age and hyperglycaemia first appears from 18 to 32 weeks of age. Bafilomycin A1 was administered to NOD mice to test whether the onset of hyperglycaemia was accelerated.
Eleven-week-old female NOD/lt mice were injected intraperitoneally with either 12 ng per gram body weight of bafilomycin A1 (10 mice) or phosphate buffered saline carrier solution (10 mice) on each of 5 consecutive days. Blood glucose was monitored weekly and diabetes defined as a blood glucose measurement greater than 11 mmol/L.

vATPase = settings: 275 nM; cited from earlier work

Compound: CO/C1=C\C(C)=C\[C@@H](C)[C@@H](O)[C@@H](C)C/C(C)=C/C=C/[C@H](OC)[C@@H]([C@@H](C)[C@@H](O)[C@H](C)[C@@]2(O)C[C@@H](O)[C@H](C)[C@@H](C(C)C)O2)OC1=O [bafilomycin A1]
- net fluorescence emitted by islets (median) (Balb/c mice [1]; 1 day after administration): 57.9 arbitrary fluorescence units
- net fluorescence emitted by islets (median) (Balb/c mice [1]; 7 days after administration): 59.9 arbitrary fluorescence units
- total islet area as a percentage of the total area of pancreas (Balb/c mice [2]; 1 day): 0.33%
- islet size vs controls (Balb/c mice [2]; 1 day treatment group): no differences
- total islet area as a percentage of the total area of pancreas (Balb/c mice [2]; 7 day treated mice): 0.30%
- islet size vs controls (Balb/c mice [2]; 7 day treatment group): no differences
- total islet area as a percentage of the total area of pancreas (Balb/c mice [2]; 26 day treated mice): 0.23%
- morphology of kidney, liver, testes and brain (Balb/c mice [2]; 90 day end-point): did not reveal any gross morphological changes
- morphology of the islets (Balb/c mice [2]; 90 day end-point, 2 doses): signs of fragmentation or neogenesis
- total islet area as a percentage of the total area of pancreas (Balb/c mice [2]; 90 day treated mice): 0.16%
- islet size vs controls (Balb/c mice [2]; treated 26 days previously): significant decrease
- mean islet size (Balb/c mice [2]; treated 26 days previously): 4900 μm2
- islet size vs controls (Balb/c mice [2]; treated 90 days previously): significant decrease
- mean islet size (Balb/c mice [2]; treated 90 days previously, 2 doses): 2800 μm^2
- increased level of RBG first detectable after treatment (Balb/c mice [2]; treated twice a week apart): 50 days
- weight of treated vs control groups (Balb/c mice [2]; treated twice a week apart, followed 90 days): did not differ significantly; also recorded: No significant difference
- random blood glucose levels (RBG) vs controls (Balb/c mice [2]; treated twice a week apart, weekly measurement for 90 days): small but significant increase
- No. islets per mm^2 pancreas section (C57B1/6J mice; day 84, 5 daily doses of 12 ng/g body weight): 0.85 per mm^2 pancreas section
- effect on islet number and size (C57B1/6J mice; i.p. 12 ng/gram body weight): increased the number of small islets
- Median size (C57B1/6J mice; insulin-positive islets, day 84, 5 daily doses of 12 ng/g body weight): 3830 μm^2
- onset of islet beta cell destruction and hyperglycaemia (NOD/lt mice): slight acceleration
- inhibition of in vitro vATPase activity (vATPase): sufficient to inhibit
